The conditions of this data set: 298.15 K; for surface tension liquid-gas: Drop volume; for mass density: 101.33 kPa, Liquid.

The source of these data is the NIST ThermoML archive (doi:10.1021/je100177u).

± gives the expanded uncertainty stated by the source.

One may read the surface tension liquid-gas as the work needed to enlarge the surface of a liquid by unit area. By mass density is commonly meant the mass of a sample divided by its volume. `CCCCCl` [1-chlorobutane]: the surface tension liquid-gas stood at 23.29 ± 0.18 mN/m and the mass density was determined as 880.69 ± 0.61 kg/m3.

As to `CC(C)CO` [2-methyl-1-propanol], the surface tension liquid-gas is 22.47 ± 0.15 mN/m and the mass density is 797.77 ± 0.62 kg/m3.

On to `CC(C)(C)O` [2-methylpropan-2-ol], for which the surface tension liquid-gas was 20.3 ± 0.14 mN/m and the mass density is recorded as 780.78 ± 0.65 kg/m3.

Take `CCCCO` [butan-1-ol]: the surface tension liquid-gas stood at 24.25 ± 0.15 mN/m and the mass density turned out to be 805.8 ± 0.29 kg/m3.

Consider `CCC(C)O` (configuration not stated) [butan-2-ol], for which the surface tension liquid-gas was determined as 23.08 ± 0.18 mN/m and the mass density is recorded as 802.44 ± 0.73 kg/m3.

As to `CCCCCC` [hexane], the surface tension liquid-gas is listed as 18.06 ± 0.16 mN/m and the mass density is reported as 655.07 ± 0.98 kg/m3.
